Calls of active or inactive are those of the source. The rule behind the calls is not given here.
What was measured:
Jurkat [1] = test: Cytotoxicity against gamma irradiated human Jurkat cells at 10 uM after 30 mins relative to control; type: functional
Jurkat [2] = test: Cytotoxicity against human Jurkat cells at 10 uM after 30 mins; type: functional, cell-based

Compound	Activity (Jurkat [1])	Activity (Jurkat [2])
CCCCCCCCCCCCCC[C@@H](O)[C@@H](O)[C@H](CO)NC(=O)COCc1ccccc1	11%	
CCCCCCCCCCCCCC[C@@H](O)[C@@H](O)[C@H](CO)NC(=O)CCCC(=O)OCC	19%	
CCCCCCCCCCCCCC[C@@H](O)[C@@H](O)[C@H](CO)NC(=O)CCC(=O)OCC	12%	
CCCCCCCCCCCCCC[C@@H](O)[C@@H](O)[C@@H](N)CO	inactive	Active
CCCCCCCCCCCCCC[C@@H](O)[C@@H](O)[C@H](CO)NC(=O)CCCCCCCCC(=O)OC	inactive	Active
